Laboratory results: patent US20200261391A1, “METHODS OF REDUCING THE RISK OF A CARDIOVASCULAR EVENT IN A STATIN-TREATED SUBJECT BY INCREASING SERUM AND PLASMA EPA AND DPA LEVELS” (Amarin Pharmaceuticals Ireland Limited, priority 2019, published 2020)

Experiments:
[1] = system: patients with elevated triglyceride levels on statin therapy; experiment: REDUCE-IT total (first and subsequent) ischemic events (Example 3; negative binomial, Wei-Lin-Weissfeld, Andersen-Gill, joint frailty models); format: in vivo, human; parameters: total (first and subsequent) ischemic events for primary composite endpoint, relative risk reduction / first events, reduction / second events, reduction / third events, reduction / fourth or more events, reduction: concentration or dose not given beside the values; conditions: for HR (95% CI), Key Secondary Composite Endpoint / HR (95% CI), Primary Composite Endpoint / RR (95% CI), Key Secondary Composite Endpoint, total events / RR (95% CI), Primary Composite Endpoint, total events: full dataset; for RR (95% CI), Key Secondary Composite Endpoint, total events / RR (95% CI), Primary Composite Endpoint, total events: icosapent ethyl vs placebo
Source text: The following study was a multi-center, placebo-controlled clinical trial the details of which are described above in Example 1, the REDUCE-IT design. […] The main outcomes were total primary composite endpoint events defined as cardiovascular death, nonfatal myocardial infarction, nonfatal stroke, coronary revascularization, or hospitalization for unstable angina and total key secondary composite endpoint events defined as cardiovascular death, nonfatal myocardial infarction, or nonfatal stroke. In the context of this study, total events refer to any first event as well as any subsequent event. Differences in total events were determined using other statistical models, including Andersen-Gill, Wei-Lin-Weisfeld (Li and Lagakos), both pre-specified, and a post hoc and joint-frailty analysis.
For the present prespecified analysis, the primary outcome was the total of first plus subsequent ischemic events consisting of the composite of cardiovascular death, nonfatal myocardial infarction, nonfatal stroke, coronary revascularization, or hospitalization for unstable angina. […] Exploratory analyses of the total of first and subsequent events were also performed for the key secondary composite endpoint.
Baseline characteristics were compared between treatment groups using the chi-squared test for categorical variables and the Wilcoxon rank sum test for continuous variables. There are several methods for analyzing first and subsequent (recurrent) event data. As a pre-specified statistical method, a negative binomial regression was used to calculate rates and rate ratios for total cardiovascular events, which accounts for the variability in each patient's risk of events. As pre-specified supportive analyses, the modified Wei-Lin-Weissfeld method (Li and Lagakos modification) was used to calculate hazard ratios (HRs) for the time to the first event, second event, or third event. An additional pre-specified analysis, the Andersen-Gill model using a Cox proportional-hazard with the counting-process formulation was performed to model the total events. In addition, in order to account for informative censoring due to cardiovascular death, the HR for total non-fatal events was calculated using a joint frailty model (See Rondeau V. Joint frailty models for recurring events and death using maximum penalized likelihood estimation: application on cancer events. Biostatistics. 2007; 8:708-21). The joint frailty model simultaneously estimates hazard functions for non-fatal and fatal CV events and takes into account the fact that patients who are prone to have nonfatal events have an elevated risk of a cardiovascular death. The application of the joint frailty model used a gamma distribution for the frailty term.
Statistical analyses using the full adjudicated endpoint events dataset without exclusions using this bundling approach were also determined.

[2] = system: patients with elevated triglyceride levels on statin therapy; experiment: REDUCE-IT endpoints by pooled (icosapent ethyl and placebo) EPA/AA ratio tertile; format: in vivo, human; conditions: icosapent ethyl and placebo pooled
Source text: The objective of this study is to assess the effects of administering icosapent ethyl at 4 g per day to patients from the REDUCE-IT trial of Example 1. More specifically, patients from the REDUCE-IT trial of Example 1 were stratified by their EPA levels into one of three tertiles. Following stratification, the objective was to determine if the RRR differs between patients having EPA levels in the three different tertiles. For the data collected as shown in Tables 38-43 and FIGS. 52, 53, and 56-59, the tertiles were established based on data collected from subjects at 1 year, 2 years, and last visit following icosapent ethyl administration compared to placebo. Data are presented as an average of 1 year, 2 year, […], and end of study values. The data was further analyzed use both pooled and unpooled statistically methods.
Placebo and icosapent ethyl treated subjects were pooled and stratified based on EPA/AA tertiles with […], […], and the highest […]

[3] = Andersen-Gill (I) model, adjusted, vs placebo
[4] = Andersen-Gill (I) model, reduced dataset, vs placebo
[5] = Andersen-Gill (I) model, unadjusted, vs placebo
[6] = Andersen-Gill (II) model, adjusted, vs placebo
[7] = Andersen-Gill (II) model, reduced dataset, vs placebo
[8] = Andersen-Gill (II) model, unadjusted, vs placebo
[9] = Joint frailty model, reduced dataset, vs placebo
[10] = Modified WLW model, reduced dataset, vs placebo
[11] = Modified WLW, first event, adjusted, vs placebo
[12] = Modified WLW, first event, unadjusted, vs placebo
[13] = Modified WLW, second event, adjusted, vs placebo
[14] = Modified WLW, second event, unadjusted, vs placebo
[15] = Modified WLW, third event, adjusted, vs placebo
[16] = Modified WLW, third event, unadjusted, vs placebo
[17] = N = 4089, same-day multiple endpoints handled as a single event
[18] = Negative binomial model, adjusted for stratification factors
[19] = Negative binomial model, reduced dataset, vs placebo
[20] = Negative binomial model, unadjusted
[21] = Wei-Lin-Weissfeld model, Example 3
[22] = per 1000 patients treated for five years
[23] = highest >0.395187 vs lowest ≤0.084337
[24] = highest >0.395187 vs middle >0.084337 to ≤0.395187
[25] = middle >0.084337 to ≤0.395187 vs lowest ≤0.084337

Structure (SMILES): CC/C=C\C/C=C\C/C=C\C/C=C\C/C=C\CCCC(=O)OCC [icosapent ethyl, eicosapentaenoic acid ethyl ester]
- HR (95% CI), Key Secondary Composite Endpoint [1, 3]: 0.71
- HR (95% CI), Primary Composite Endpoint [1, 3]: 0.68
- Adjusted HR, key secondary composite endpoint, total events [1, 4]: 0.72
- Adjusted HR, primary composite endpoint, total events [1, 4]: 0.69
- Unadjusted HR, key secondary composite endpoint, total events [1, 4]: 0.72
- Unadjusted HR, primary composite endpoint, total events [1, 4]: 0.69
- HR (95% CI), Key Secondary Composite Endpoint [1, 5]: 0.71
- HR (95% CI), Primary Composite Endpoint [1, 5]: 0.68
- HR (95% CI), Key Secondary Composite Endpoint [1, 6]: 0.71
- HR (95% CI), Primary Composite Endpoint [1, 6]: 0.68
- Adjusted HR, key secondary composite endpoint, total events [1, 7]: 0.72
- Adjusted HR, primary composite endpoint, total events [1, 7]: 0.69
- Unadjusted HR, key secondary composite endpoint, total events [1, 7]: 0.72
- Unadjusted HR, primary composite endpoint, total events [1, 7]: 0.69
- HR (95% CI), Key Secondary Composite Endpoint [1, 8]: 0.71
- HR (95% CI), Primary Composite Endpoint [1, 8]: 0.68
- first events, reduction ([1]; Example 3): 25%
- fourth or more events, reduction ([1]; Example 3): 48%
- second events, reduction ([1]; Example 3): 32%
- third events, reduction ([1]; Example 3): 31%
- HR, Cardiovascular Death, key secondary endpoint, adjusted [1, 9]: 0.79
- HR, Cardiovascular Death, key secondary endpoint, unadjusted [1, 9]: 0.79
- HR, Cardiovascular Death, primary endpoint, adjusted [1, 9]: 0.80
- HR, Cardiovascular Death, primary endpoint, unadjusted [1, 9]: 0.80
- HR, Non-fatal Cardiovascular Event, key secondary endpoint, adjusted [1, 9]: 0.68
- HR, Non-fatal Cardiovascular Event, key secondary endpoint, unadjusted [1, 9]: 0.68
- HR, Non-fatal Cardiovascular Event, primary endpoint, adjusted [1, 9]: 0.67
- HR, Non-fatal Cardiovascular Event, primary endpoint, unadjusted [1, 9]: 0.66
- Adjusted HR, key secondary composite endpoint, first event [1, 10]: 0.74
- Adjusted HR, key secondary composite endpoint, second event [1, 10]: 0.75
- Adjusted HR, key secondary composite endpoint, third event [1, 10]: 0.79
- Adjusted HR, primary composite endpoint, first event [1, 10]: 0.75
- Adjusted HR, primary composite endpoint, second event [1, 10]: 0.68
- Adjusted HR, primary composite endpoint, third event [1, 10]: 0.69
- Unadjusted HR, key secondary composite endpoint, first event [1, 10]: 0.74
- Unadjusted HR, key secondary composite endpoint, second event [1, 10]: 0.75
- Unadjusted HR, key secondary composite endpoint, third event [1, 10]: 0.79
- Unadjusted HR, primary composite endpoint, first event [1, 10]: 0.76
- Unadjusted HR, primary composite endpoint, second event [1, 10]: 0.69
- Unadjusted HR, primary composite endpoint, third event [1, 10]: 0.69
- HR (95% CI), Key Secondary Composite Endpoint [1, 11]: 0.74
- HR (95% CI), Primary Composite Endpoint [1, 11]: 0.75
- HR (95% CI), Key Secondary Composite Endpoint [1, 12]: 0.74
- HR (95% CI), Primary Composite Endpoint [1, 12]: 0.76
- HR (95% CI), Key Secondary Composite Endpoint [1, 13]: 0.75
- HR (95% CI), Primary Composite Endpoint [1, 13]: 0.68
- HR (95% CI), Key Secondary Composite Endpoint [1, 14]: 0.75
- HR (95% CI), Primary Composite Endpoint [1, 14]: 0.69
- HR (95% CI), Key Secondary Composite Endpoint [1, 15]: 0.79
- HR (95% CI), Primary Composite Endpoint [1, 15]: 0.70
- HR (95% CI), Key Secondary Composite Endpoint [1, 16]: 0.79
- HR (95% CI), Primary Composite Endpoint [1, 16]: 0.70
- Key secondary endpoint: Total events before reduction, % of overall events ([1]; N = 4089): 42.0%
- Primary endpoint: Total events before reduction, % of overall events ([1]; N = 4089): (40.7) %
- Key secondary endpoint: Fatal events, % of overall events ([1]; N = 4089, after reduction): 45.0%
- Key secondary endpoint: Non-fatal events, % of overall events ([1]; N = 4089, after reduction): 40.9%
- Primary endpoint: Fatal events, % of overall events ([1]; N = 4089, after reduction): (45.0) %
- Primary endpoint: Non-fatal events, % of overall events ([1]; N = 4089, after reduction): (40.4) %
- Key secondary endpoint: Total events after reduction, % of overall events [1, 17]: 42.1%
- Primary endpoint: Total events after reduction, % of overall events [1, 17]: (41.0) %
- RR (95% CI), Key Secondary Composite Endpoint, total events [1, 18]: 0.71
- RR (95% CI), Primary Composite Endpoint, total events [1, 18]: 0.69
- Adjusted RR, key secondary composite endpoint, total events [1, 19]: 0.72
- Adjusted RR, primary composite endpoint, total events [1, 19]: 0.70
- Unadjusted RR, key secondary composite endpoint, total events [1, 19]: 0.71
- Unadjusted RR, primary composite endpoint, total events [1, 19]: 0.68
- RR (95% CI), Key Secondary Composite Endpoint, total events [1, 20]: 0.71
- RR (95% CI), Primary Composite Endpoint, total events [1, 20]: 0.67
- first occurrence of primary composite endpoint, HR [1, 21]: 0.75
- second occurrence of primary composite endpoint, HR [1, 21]: 0.68
- total (first and subsequent) ischemic events for primary composite endpoint, relative risk reduction ([1]; in vivo): 30%
- cardiovascular deaths prevented [1, 22]: 12
- coronary revascularizations prevented [1, 22]: 76
- episodes of hospitalization for unstable angina prevented [1, 22]: 16
- myocardial infarctions prevented [1, 22]: 42
- strokes prevented [1, 22]: 14
- total primary endpoint events prevented [1, 22]: approximately 159
- total key secondary endpoint event rate ([1]; placebo 44): 32 per 1000 patient years
- total (first and subsequent) primary endpoint event rate ([1]; placebo 89): 61 per 1000 patient years
- total key secondary endpoint events, RR ([1]; vs placebo): 0.72
- total primary endpoint events, rate ratio (RR) ([1]; vs placebo): 0.70
- HR (95% CI), Key Secondary Endpoint, pooled EPA/AA ratio tertiles, Highest vs Lowest [2, 23]: 0.57 (0.48,0.68)
- HR (95% CI), Primary Endpoint, pooled EPA/AA ratio tertiles, Highest vs Lowest [2, 23]: 0.64 (0.56, 0.73)
- HR (95% CI), Key Secondary Endpoint, pooled EPA/AA ratio tertiles, Highest vs Middle [2, 24]: 0.75 (0.63, 0.89)
- HR (95% CI), Primary Endpoint, pooled EPA/AA ratio tertiles, Highest vs Middle [2, 24]: 0.84 (0.73, 0.96)
- HR (95% CI), Key Secondary Endpoint, pooled EPA/AA ratio tertiles, Middle vs Lowest [2, 25]: 0.76 (0.65, 0.89)
- HR (95% CI), Primary Endpoint, pooled EPA/AA ratio tertiles, Middle vs Lowest [2, 25]: 0.77 (0.67, 0.87)
